The text below walks through data of patent publication US10252989B2, “Picolinamides with fungicidal activity” (DOW AGROSCIENCES LLC, priority 2014, dated 2019).

The structures appear in SMILES notation. Like-named read-outs stand apart in the source and are kept apart here.

One experiment concerns Zymoseptoria tritici. The experiment in a line: Fungicidal activity: leaf blotch of wheat (SEPTTR), disease control on wheat seedlings. Type of experiment: in vivo. The settings on record: for pest or weed control at 121.5 g/ha: Low-volume cereal activity at 121.5 g/H, wheat leaf blotch. How it is done:
(§1) All fungicides were evaluated using the aforementioned method for their activity vs. all target diseases. Wheat leaf blotch and brown rust activity were also evaluated using track spray applications, in which case the fungicides were formulated as EC formulations, containing 0.1% Trycol 5941 in the spray solutions. Wheat plants (variety Yuma) were grown from seed in a greenhouse in 50% mineral soil/50% soil-less Metro mix until the first leaf was fully emerged, with 7-10 seedlings per pot. These plants were inoculated with an aqueous spore suspension of Zymoseptoria tritici either prior to or after fungicide treatments. After inoculation the plants were kept in 100% relative humidity (one day in a dark dew chamber followed by two to three days in a lighted dew chamber at 20° C.) to permit spores to germinate and infect the leaf. The plants were then transferred to a greenhouse set at 20° C. for disease to develop. When disease symptoms were fully expressed on the 1st leaves of untreated plants, infection levels were assessed on a scale of 0 to 100 percent disease severity. Percent disease control was calculated using the ratio of disease severity on treated plants relative to untreated plants.

For a further experiment, the system named is Puccinia triticina. As to the kind of experiment: Fungicidal activity: wheat brown rust (PUCCRT), disease control on wheat seedlings. It counts as in vivo. The settings on record: Low-volume cereal activity at 121.5 g/H. The protocol:
as §1, with “plants. Example B: Evaluation of Fungicidal Activity: Wheat Brown Rust (Puccinia triticina; Synonym: Puccinia recondita f. sp. tritici; Bayer code PUCCRT) Wheat plants (variety Yuma) were grown from seed in a greenhouse in 50% mineral soil/50% soil-less Metro mix until the first leaf was fully emerged, with 7-10 seedlings per pot. These plants were inoculated with an aqueous spore suspension of Puccinia triticina either prior to or after fungicide treatments. […] The plants were then transferred to a greenhouse set at 24° C. for disease to develop. Fungicide formulation, application and disease assessment followed the procedures as described in the Example A.” for “plants.”

Where [1] appears, read: 24 h, 1 Day Protectant, read-out: SEPTTR 1DP disease control rating.
Setting [2] is: 72 h, 3 Day Curative, read-out: SEPTTR 3DC disease control rating.
The mark [3] stands for this setting: 24 h, 1 Day Protectant, read-out: PUCCRT 1DP disease control rating.
Setting [4] is: 72 h, 3 Day Curative, read-out: PUCCRT 3DC disease control rating.

As to `CCCC[C@@H]([C@H](C)OC(=O)[C@H](C)NC(=O)c1nccc(OC)c1OC(C)=O)[C@@H](CC)Oc1ccccc1` [Compound 190], the pest or weed control at 121.5 g/ha in the experiment on Zymoseptoria tritici (setting [1]), in the experiment on Zymoseptoria tritici (setting [2]), in the experiment with Puccinia triticina (setting [3]) and with Puccinia triticina (setting [4]) was 80 to 100% in each case.
On to `COc1ccnc(C(=O)N[C@@H](C)C(=O)O[C@@H](C)[C@H](Cc2ccccc2)c2ccccc2)c1O` [Compound 119], for which the pest or weed control at 100 ppm with Zymoseptoria tritici (72 h, High-volume cereal activity at 100 ppm, 3 Day Curative, wheat seedlings, read-out: SEPTTR 3DC disease control rating) lay within 0 to 80%.
For `CC[C@H](NC(=O)c1nccc(OC)c1OC(C)=O)C(=O)O[C@@H](C)C(Cc1ccc(OC)cc1)Cc1ccc(OC)cc1` [Compound 273], the pest or weed control at 121.5 g/ha is 80 to 100% in the experiment on Zymoseptoria tritici (setting [1]), 0 to 80% in the experiment on Zymoseptoria tritici (setting [2]), 0 to 80% in the experiment with Puccinia triticina (setting [3]) and 0 to 80% with Puccinia triticina (setting [4]).
